# Data from patent publication US9975903B2, “Condensed heterocyclic compound” (Takeda Pharmaceutical Company Limited, priority 2014, dated 2018).
# Counter-ions that a name gives are not always drawn.
# Molecular target: T1, Human recombinant enteropeptidase (Homo sapiens, UniProt P98073)
# T1 construct: purchased ITSI-Biosciences LLC #REN-260
# Assay: Human enteropeptidase inhibitory activity (Test Example 1)
# Format: biochemical
# Conditions: 3.3 μM test compound; inhibition rate from fluorescence intensity at 2 hours after the start of the reaction
# How it was run: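 Recombinant human enteropeptidase in 50 mM Tricine pH 8.0, 0.01% Tween 20, 10 mM CaCl2, with a 5FAM/CPQ2-quenched peptide substrate (2.1 μM solution before mixing). Compound came from 1 mM DMSO stock diluted 100-fold in buffer. Fluorescence (ex 485/em 535 nm) at 2 h gave % inhibition versus no-compound and no-enzyme controls.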
# T1 sequence (P98073 whole entry): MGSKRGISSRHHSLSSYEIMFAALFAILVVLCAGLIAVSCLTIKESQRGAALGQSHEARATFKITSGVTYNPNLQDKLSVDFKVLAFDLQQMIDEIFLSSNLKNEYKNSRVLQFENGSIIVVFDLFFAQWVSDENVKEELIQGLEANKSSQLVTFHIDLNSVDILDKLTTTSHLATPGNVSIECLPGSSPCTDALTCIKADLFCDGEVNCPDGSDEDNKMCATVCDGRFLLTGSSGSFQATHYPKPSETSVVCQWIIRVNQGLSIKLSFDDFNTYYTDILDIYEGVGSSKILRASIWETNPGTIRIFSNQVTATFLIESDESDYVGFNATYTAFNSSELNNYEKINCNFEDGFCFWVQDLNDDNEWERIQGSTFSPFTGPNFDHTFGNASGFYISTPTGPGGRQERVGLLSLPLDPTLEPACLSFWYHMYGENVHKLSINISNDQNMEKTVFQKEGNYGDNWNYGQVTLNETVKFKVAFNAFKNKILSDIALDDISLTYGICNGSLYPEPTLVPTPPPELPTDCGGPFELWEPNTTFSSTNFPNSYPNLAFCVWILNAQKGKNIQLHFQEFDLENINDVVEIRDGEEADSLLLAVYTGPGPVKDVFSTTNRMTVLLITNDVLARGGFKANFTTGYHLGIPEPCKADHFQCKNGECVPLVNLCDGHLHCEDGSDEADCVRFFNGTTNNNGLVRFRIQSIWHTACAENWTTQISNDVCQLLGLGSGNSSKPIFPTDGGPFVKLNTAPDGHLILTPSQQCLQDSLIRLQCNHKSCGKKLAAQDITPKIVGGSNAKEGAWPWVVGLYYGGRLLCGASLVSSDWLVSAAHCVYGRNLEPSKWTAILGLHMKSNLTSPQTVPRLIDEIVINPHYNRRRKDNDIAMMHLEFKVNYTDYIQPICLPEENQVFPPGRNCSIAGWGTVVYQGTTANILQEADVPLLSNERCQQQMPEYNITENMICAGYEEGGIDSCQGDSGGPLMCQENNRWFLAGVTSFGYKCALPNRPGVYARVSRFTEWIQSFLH
row,3.3 μM Inhibition,Molecule
1,100%,"4-((((10- carbamimidamido- 13-oxo-6,7,8,13- tetrahydro- dibenzo[b,f] [1,4]dioxecin-4- yl)carbonyl) carboxymethyl) amino)methyl) thiophene-2- carboxylic acid [Example 125]"

# Same assay, conditions: 3.3 μM test compound; inhibition rate from fluorescence intensity at 2 hours after the start of the reaction; read-out: 3.3 μM Inhibition
row,inhibition at 3.3 µM,Molecule
1,100%,"N=C(N)Nc1ccc2c(c1)CCCOc1cc(CCC(=O)N[C@@H](CC(=O)O)C(=O)O)ccc1OC2=O [Example 49, N-(3-(10-carbamimidamido-13-oxo-6,7,8,13-tetrahydro-dibenzo[b,f] [1,4]dioxecin-3-yl)propanoyl)-aspartic acid]"
2,101%,"N=C(N)Nc1ccc2c(c1)CCCOc1c(cccc1C(=O)O)OC2=O [Example 29, 10-carbamimidamido-13-oxo-6,7,8,13-tetrahydro-dibenzo[b,f] [1,4]dioxecine-4-carboxylic acid]"
3,101%,"N=C(N)Nc1ccc2c(c1)CCCOc1cc(C(=O)N[C@@H](CC(=O)O)C(=O)O)ccc1OC2=O [Example 81, N-((10-carbamimidamido-13-oxo-6,7,8,13-tetrahydro-dibenzo[b,f] [1,4]dioxecin-3-yl)carbonyl)-L-aspartic acid]"
4,101%,"N=C(N)Nc1ccc2c(c1)CCCCc1c(OCC(=O)N[C@@H](CC(=O)O)C(=O)O)cccc1OC2=O [Example 31, N-(((3-carbamimidamido-14-oxo-5,7,8,14-tetrahydro-6H-dibenzo[b,h]oxecin-9-yl)oxy)acetyl)-L-aspartic acid]"
5,101%,"N=C(N)Nc1ccc2c(c1)CCCOc1c(ccc(CCC(=O)N(CC(=O)O)CC(=O)O)c1C(=O)N[C@@H](Cc1ccc(O)cc1)C(=O)O)OC2=O [Example 124, N-((3-(3-(bis(carboxymethyl)amino)-3-oxopropyl)-10-carbamimidamido-13-oxo-6,7,8,13-tetrahydro-dibenzo[b,f] [1,4]dioxecin-4-yl)carbonyl)-L-tyrosine]"
6,100%,"N=C(N)Nc1ccc2c(c1)CCc1cc(CCC(=O)N[C@@H](CC(=O)O)C(=O)O)ccc1OC2=O [Example 56, N-(3-(9-carbamimidamido-6-oxo-11,12-dihydro-6H-dibenzo[b,f]oxocin-2-yl)propanoyl)-L-aspartic acid]"
7,101%,"N=C(N)Nc1ccc2c(c1)CCCCCc1c(cccc1C(=O)N[C@@H](CC(=O)O)C(=O)O)OC2=O [Example 76, N-((3-Carbamimidamido-15-oxo-5,6,7,8,9,15-hexahydrodibenzo[b,i]hexacycloundecin-10-yl)carbonyl)-L-aspartic acid]"
8,96%,"N=C(N)Nc1ccc2c(c1)CCCCOc1c(CCC(=O)N[C@@H](CC(=O)O)C(=O)O)cccc1OC2=O [Example 44, N-(3-(11-Carbamimidamido-14-oxo-7,8,9,14-tetrahydro-6H-dibenzo[b,f][1,4]dioxacycloundecin-4-yl)propanoyl)-L-aspartic acid trifluoroacetate]"
9,102%,"CC1CCCc2cc(NC(=N)N)ccc2C(=O)Oc2cccc(C(=O)N[C@@H](CC(=O)O)C(=O)O)c21 (stereo partly drawn) [Example 21, N-((3-carbamimidamido-8-methyl-14-oxo-5,7,8,14-tetrahydro-6H-dibenzo[b,h]oxecin-9-yl)carbonyl)-L-aspartic acid]"
10,101%,"N=C(N)Nc1ccc2c(c1)CCCOc1c(cccc1C(=O)N(CC(=O)O)[C@@H](Cc1ccc(O)cc1)C(=O)O)OC2=O [Example 92, N-((10-carbamimidamido-13-oxo-6,7,8,13-tetrahydro-dibenzo[b,f] [1,4]dioxecin-4-yl)carbonyl)-N-(carboxymethyl)-L-tyrosine]"
11,98%,"N=C(N)Nc1ccc2c(c1)CCCCc1cc3c(cc1OC2=O)OC[C@H]3CC(=O)N[C@@H](CC(=O)O)C(=O)O [Example 39, N-(((10S)-3-carbamimidamido-15-oxo-5,7,8,10,11,15-hexahydro-6H-12, 14-dioxabenzo[5,6]cyclodeca[1,2-f]inden-10-yl)acetyl)-L-aspartic acid]"
12,100%,"N=C(N)Nc1ccc2c(c1)CCCOc1c(cc(CCC(=O)O)cc1C(=O)N[C@@H](CC(=O)O)C(=O)O)OC2=O [Example 117, N-((10-carbamimidamido-2-(2-carboxyethyl)-13-oxo-6,7,8,13-tetrahydro-dibenzo[b,f] [1,4]dioxecin-4-yl)carbonyl)-L-aspartic acid]"
13,101%,N=C(N)Nc1ccc2c(c1)CCCOc1c(ccc(CCC(=O)O)c1C(=O)N(CCN(CC(=O)O)CC(=O)O)CC(=O)O)OC2=O [Example 149]
14,100%,"N=C(N)Nc1ccc2c(c1)CCCOc1c(cccc1C(=O)N(CC(=O)O)Cc1cccc(CN(CC(=O)O)CC(=O)O)n1)OC2=O [Example 126, N-((6-((bis(carboxy-methyl)amino)methyl)pyridin-2-yl)methyl)-N-((10-carbamimidamido-13-oxo-6,7,8,13-tetrahydro-dibenzo[b,f] [1,4]dioxecin-4-yl)carbonyl)glycine]"
15,98%,"N=C(N)Nc1ccc2c(c1)CCCCc1c(cccc1C(=O)NCCS(=O)(=O)O)OC2=O [Example 33, 2-(((3-carbamimidamido-14-oxo-5,7,8,14-tetrahydro-6H-dibenzo[b,h]oxecin-9-yl)carbonyl)amino) ethanesulfonic acid]"
16,42%,"N=C(N)Nc1ccc2c(c1)CCc1nc(CCC(=O)N[C@@H](CC(=O)O)C(=O)O)ccc1OC2=O [Example 48, N-(3-(9-Carbamimidamido-6-oxo-11,12-dihydro-6H-[2]benzoxocino[4,3-b]pyridin-2-yl)propanoyl)-L-aspartic acid trifluoroacetate]"
17,102%,"N=C(N)Nc1ccc2c(c1)CCCCc1c(CCC(=O)N[C@@H](CC(=O)O)C(=O)O)cccc1OC2=O [Example 83, N-(3-(3-carbamimidamido-14-oxo-5,7,8,14-tetrahydro-6H-dibenzo[b,h]oxecin-9-yl)propanoyl)-L-aspartic acid]"
18,45%,"N=C(N)Nc1ccc2c(c1)CCCCc1sc(C(=O)N[C@@H](CC(=O)O)C(=O)O)cc1OC2=O [Example 26, N-((9-Carbamimidamido-12-oxo-5,6,7,12-tetrahydro-4H-thieno[3,2-c][2]benzooxecin-2-yl)carbonyl)-L-aspartic acid]"
19,101%,"N=C(N)Nc1ccc2c(c1)CCCOc1c(CCC(=O)N[C@@H](CC(=O)O)C(=O)O)cccc1OC2=O [Example 47, N-(3-(10-Carbamimidamido-13-oxo-6,7,8,13-tetrahydrodibenzo[b,f][1,4]dioxecin-4-yl)propanoyl)aspartic acid]"
20,101%,"N=C(N)Nc1ccc2c(c1)CCCOc1c(CCC(=O)N[C@@H](Cc3ccc(O)cc3)C(=O)O)cccc1OC2=O [Example 95, N-(3-(10-carbamimidamido-13-oxo-6,7,8,13-tetrahydro-dibenzo[b,f] [1,4]dioxecin-4-yl)propanoyl)-L-tyrosine]"
21,101%,"C[C@@H](O)[C@H](NC(=O)c1cccc2c1OCCCc1cc(NC(=N)N)ccc1C(=O)O2)C(=O)O [Example 90, N-((10-carbamimidamido-13-oxo-6,7,8,13-tetrahydro-dibenzo[b,f] [1,4]dioxecin-4-yl)carbonyl)-L-threonine]"
22,101%,"N=C(N)Nc1ccc2c(c1)OCCCOc1c(CCC(=O)N[C@@H](CC(=O)O)C(=O)O)cccc1OC2=O [Example 43, N-(3-(3-Carbamimidamido-15-oxo-7,8-dihydro-6H, 15H-dibenzo[b,f][1,4,8]trioxacycloundecin-10-yl)propanoyl)aspartic acid trifluoroacetate]"
